Drawing on PMC5104186 (Cell reports, 2016), this text covers EC50 and Ki for one compound.

One assay deals with α1β1γ2 GABA-A receptor. The conditions noted are these: agonist; nH 1.3.
A further assay has as its system α5β1γ2 GABA-A receptor. As to conditions: agonist; +50 mV; nH 1.8.
Another assay deals with human GAD67 (hGAD67) (Homo sapiens, UniProt Q99259). The assay can be described thus: biochemical.

Broadly, the EC50 is the midpoint of the concentration-response curve. A high value points to weaker potency. What is called Ki is a dissociation constant, usually derived from enzyme kinetics or from competition with a known ligand.

Each structure is given as a SMILES string.

human GAD67 (hGAD67), sequence (Q99259 whole entry): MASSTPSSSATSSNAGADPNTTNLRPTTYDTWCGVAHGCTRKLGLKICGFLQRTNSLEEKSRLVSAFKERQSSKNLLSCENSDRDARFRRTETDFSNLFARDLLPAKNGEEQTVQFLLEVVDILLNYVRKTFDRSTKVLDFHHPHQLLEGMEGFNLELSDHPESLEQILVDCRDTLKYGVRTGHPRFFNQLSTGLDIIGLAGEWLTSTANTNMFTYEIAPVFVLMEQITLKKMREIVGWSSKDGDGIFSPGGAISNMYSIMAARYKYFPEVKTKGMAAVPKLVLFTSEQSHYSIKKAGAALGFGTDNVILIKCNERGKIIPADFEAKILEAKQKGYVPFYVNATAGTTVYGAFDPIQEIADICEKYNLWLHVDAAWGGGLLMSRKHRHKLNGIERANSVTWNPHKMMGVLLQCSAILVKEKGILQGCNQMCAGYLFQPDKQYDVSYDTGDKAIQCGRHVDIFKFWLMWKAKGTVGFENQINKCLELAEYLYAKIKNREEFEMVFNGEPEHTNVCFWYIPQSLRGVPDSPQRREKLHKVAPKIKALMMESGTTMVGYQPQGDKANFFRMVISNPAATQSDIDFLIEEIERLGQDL

Consider `O=C(O)[C@@H]1CCCN1` [L-proline], for which the EC50 in the assay on α1β1γ2 GABA-A receptor stood at 8.3 mM; in the assay with α5β1γ2 GABA-A receptor it was 5.4 mM. Moreover, the inhibitory constant (Ki) on human GAD67 (hGAD67) was 7.8 mM.
